# From patent US9120787B2, “HIV replication inhibitors” (priority 2011, dated 2015)
# Like-named read-outs stand apart in the source and are kept apart here.
# Tests used:
# [1] = Cytotoxicity by MTS staining in uninfected MAGI-CCR5 cells; assay type: cell-based; settings: human, read-out: TC50
# Method: The anti-viral activity of dihydropyrimidines was shown by inhibition of virus replication in MAGI-CCR5 cells. MAGI-CCR5 cells are derived from HeLa-CD4-LTR-β-galactosidase cells. The cells have been engineered to express high levels of CD4 and CCR5 and contain one copy of the HIV-1 LTR promoter driving expression of the β-galactosidase gene upon HIV-1 Tat transactivation. On the day preceding the assay, the cells were plated at 1.0×10^4 cells per well and maintained at 37° C. and 5% CO2 in a humidified incubator. Total cell count and viability was visually assessed using a hemacytometer and trypan blue exclusion. Compounds were evaluated at six concentrations (triplicate wells/concentration). On the day of assay setup, compound dilutions were prepared at two-times (2×) the final concentrations. Media was decanted and wells were replenished with 50 μl of 2× compounds, followed by the addition of 50 μl of diluted virus. Identical uninfected assays were prepared for parallel cytotoxicity testing.
# [2] = tested on: HIV-1Ba-L; assay: Inhibition of virus replication in MAGI-CCR5 cells (β-galactosidase reporter); assay type: cell-based
# Method: The anti-viral activity of dihydropyrimidines was shown by inhibition of virus replication in MAGI-CCR5 cells. MAGI-CCR5 cells are derived from HeLa-CD4-LTR-β-galactosidase cells. The cells have been engineered to express high levels of CD4 and CCR5 and contain one copy of the HIV-1 LTR promoter driving expression of the β-galactosidase gene upon HIV-1 Tat transactivation. On the day preceding the assay, the cells were plated at 1.0×10^4 cells per well and maintained at 37° C. and 5% CO2 in a humidified incubator. Total cell count and viability was visually assessed using a hemacytometer and trypan blue exclusion.
# Compounds were evaluated at six concentrations (triplicate wells/concentration). On the day of assay setup, compound dilutions were prepared at two-times (2×) the final concentrations. Media was decanted and wells were replenished with 50 μl of 2× compounds, followed by the addition of 50 μl of diluted virus. Identical uninfected assays were prepared for parallel cytotoxicity testing.
# Evaluation of Dihydropyrimidines vs. HIV-1Ba-L in MAGI-CCR5 Cells
# [3] = Cytotoxicity by MTS staining in PBMCs; assay type: cell-based; settings: human, peripheral blood mononuclear cells (PBMC), read-out: TC50
# Method: Cytotoxicity was assessed by MTS staining. At assay end-point, PBMC were stained with the addition of […] of the soluble tetrazolium-based dye MTS to determine cell viability and quantify compound toxicity. The plates were incubated 4 to 6 hrs at 37° C. Following incubation, the activity was assessed by reading absorbance values at 490/650 nm.
# [4] = tested on: HIV-1Ba-L; assay: HIV-1Ba-L replication in PBMCs (supernatant RT end-point)
# Method: Evaluation of Dihydropyrimidines vs. HIV-1Ba-L in Peripheral Blood Mononuclear Cells (PBMCs)
# Cultures of pooled phytohemagglutinin stimulated peripheral blood mononuclear cells (PBMC) were seeded into a 96-well plate at plating density of 5×10^4 cells/well. Compounds were serially diluted into media in ½-log increments using a high test of […] and […] of each concentration (nine total concentrations). Cells were infected with HIV strains HIV-1Ba-L and NL4-3 at an MOI=0.1. The PBMCs were cultured for seven days in an humidified incubator maintained at 37° C., 5% CO2 atmosphere. At the assay end-point, the supernatant was collected and analyzed for reverse transcriptase activity. For the RT assay, tritiated thymidine triphosphate (3H-TTP, 80 Ci/mmol) was diluted 1:1 dH2O:Ethanol at 1 mCi/ml. Poly rA:oligo dT template:primer was prepared as a stock solution by combining 150 μl poly rA (20 mg/ml) with 0.5 mL oligo dT (20 units/ml) and 5.35 ml sterile dH2O followed by aliquoting (1.0 ml) and storage at −20° C. The RT reaction buffer contained of 125 ml 1.0 M EGTA, 125 ml dH2O, 125 ml 20% Triton X100, 50 ml 1.0 M Tris (pH 7.4), 50 ml 1.0 M DTT, and 40 ml 1.0 M MgCl2. The final reaction mixture was prepared by combining 1 part 3H-TTP, 4 parts dH2O, 2.5 parts poly rA:oligo dT stock and 2.5 parts reaction buffer. To each well, ten microliters of the reaction mixture and 15 μl of virus containing supernatant were added. The plates were incubated at 37° C. for 60 minutes. Following incubation, the reaction volume was spotted onto DE81 filter-mats, washed 5 times for 5 minutes each in a 5% sodium phosphate buffer or 2×SSC. […] were washed 2 times for 1 minute each in distilled water, 2 times for 1 minute each in 70% ethanol, and then dried. Incorporated radioactivity (counts per minute, CPM) was quantified using standard liquid scintillation techniques.
# [5] = tested on: HIV-1 K103N, Y181C (A17); assay: HIV-1 K103N, Y181C (A17) replication in PBMCs; assay type: cell-based; settings: for IC50: Human immunodeficiency virus 1, PBMC; for TI (TC50/IC50): Virus A17 (K103N, Y181C) in PBMCs
# Description: In another embodiment of the present disclosure compounds are provided which inhibit the replication of HIV strains resistant to NNRTIs. Compounds in this disclosure inhibit, A17, an HIV-1 virus with mutations in the RT non-nucleoside binding pocket, K103N and Y181C, in a dose-dependent susceptibility testing manner.
# The asparagine variation at residue 103 and the cysteine variation at residue 181 are known to inhibit the activity of the NNRTI's.
# Evaluation Dihydropyrimidines vs. HIV-1Ba-L and HIV-1 K103N, Y181C in PBMCs
# [6] = Human immunodeficiency virus 1, HIV-1Ba-L in MAGI-CCR5 cells, 48 hours, β-galactosidase reporter expression, read-out: IC50
# [7] = Human immunodeficiency virus 1, BAL, PBMC
# [8] = Human immunodeficiency virus 1, PBMC, 168 h
# [9] = Virus Ba-L in PBMCs (Ba-L vs A17 comparison)
Structure (SMILES),CC50 at 48 h [1],TI (TC50/IC50) ([2]; HIV-1Ba-L in MAGI-CCR5 cells),"IC50 [2, 6]",CC50 at 7 days ([3]; A17 line of the table),CC50 at 7 days ([3]; Ba-L line of the table),CC50 at 7 days ([3]; MTS staining),TI (TC50/IC50) ([4]; HIV-1Ba-L in PBMCs),"IC50 [4, 7]","IC50 [4, 8]","TI (TC50/IC50) [4, 9]",IC50 [5],TI (TC50/IC50) [5],"IC50 ([2]; Human immunodeficiency virus 1, MAGI-CCR5, 48 h)"
CC1=C(c2nc(-c3ccc(C#N)cc3)cs2)C(c2ccc(Br)nc2)NC(=O)N1 (stereo not shown) [Example 93],≥ 100 µM,A (A = TI (TC50/IC50) ≧ 100.0),< 1 µM,≥ 100 µM,≥ 100 µM,≥ 100 µM,A (A = TI (TC50/IC50) ≧100.0),< 1 µM,< 1 µM,A (A = TI (TC50/IC50) ≧ 100.0),> 100 µM,D (D < 10.0),
CC1=C(c2nc(-c3ccc(C#N)cc3)cs2)C(c2ccc(C(F)(F)F)nc2)NC(=O)N1 (stereo not shown) [Example 96],≥ 100 µM,A (A = TI (TC50/IC50) ≧ 100.0),< 1 µM,≥ 100 µM,≥ 100 µM,≥ 100 µM,A (A = TI (TC50/IC50) ≧100.0),< 1 µM,< 1 µM,A (A = TI (TC50/IC50) ≧ 100.0),5 to 100 µM,D (D < 10.0),
CC1=C(c2nc(-c3ccc4ccccc4c3)cs2)C(c2cccc(O)c2)NC(=O)N1 (stereo not shown) [Example 36],50 to 100 µM,D (D < 10.0),5 to 100 µM,,,< 50 µM,D (D < 10.0),,5 to 100 µM,,,,
CC1=C(c2nc(-c3ccc(C#N)cc3)cs2)C(c2cccc(C(F)(F)F)c2)NC(=O)N1 (stereo not shown) [Example 71],≥ 100 µM,B (B < 100.0-50.0),1 to 5 µM,,,≥ 100 µM,C (C < 50.0-10.0),,5 to 100 µM,,,,
CC1=C(c2nc(-c3ccc(C#N)cc3)cs2)C(c2cccc(O)c2)NC(=O)N1C (stereo not shown) [Example 69],≥ 100 µM,B (B < 100.0-50.0),1 to 5 µM,,,≥ 100 µM,C (C < 50.0-10.0),,1 to 5 µM,,,,
CC1=C(c2nc(-c3ccc(Br)cc3)cs2)C(c2cccc(O)c2)NC(=O)N1 (stereo not shown) [Example 35],50 to 100 µM,C (C < 50.0 to 10.0),1 to 5 µM,,,50 to 100 µM,C (C < 50.0-10.0),,1 to 5 µM,,,,
CC1=C(c2nc(-c3ccc(C#N)cc3)cs2)C(c2ccc3cccc(O)c3n2)NC(=O)N1 (stereo not shown) [Example 23],50 to 100 µM,A (A = TI (TC50/IC50) ≧ 100.0),< 1 µM,,,≥ 100 µM,A (A = TI (TC50/IC50) ≧100.0),,< 1 µM,,,,
COc1ccc(C2NC(=O)NC(C)=C2c2nc(-c3ccc(C#N)cc3)cs2)cn1 (stereo not shown) [Example 25],≥ 100 µM,A (A = TI (TC50/IC50) ≧ 100.0),< 1 µM,,,≥ 100 µM,A (A = TI (TC50/IC50) ≧100.0),,< 1 µM,,,,
CC1=C(c2nc(-c3ccc(C#N)cc3)cs2)C(c2ccc(=O)[nH]c2)NC(=O)N1 (stereo not shown) [Example 18],≥ 100 µM,D (D < 10.0),> 100 µM,,,≥ 100 µM,D (D < 10.0),,> 100 µM,,,,
COc1cccc(C2NC(=O)NC(C)=C2c2nc(-c3ccc(C#N)cc3)cs2)n1 (stereo not shown) [Example 28],≥ 100 µM,B (B < 100.0-50.0),1 to 5 µM,,,≥ 100 µM,B (B < 100.0-50.0),,1 to 5 µM,,,,
CC1=C(c2nc(-c3ccc(Cl)cc3)cs2)C(c2cccc(O)c2)NC(=O)N1 (stereo not shown) [Example 74],50 to 100 µM,C (C < 50.0 to 10.0),1 to 5 µM,,,50 to 100 µM,C (C < 50.0-10.0),,1 to 5 µM,,,,
"Cc1nnc(C(=O)NC(C)(C)c2nc(C(=O)NCc3ccc(F)cc3)c(O)c(=O)n2C)o1 [Raltegravir, reference compound]",> 100 µM,>3.85,,,,> 1 µM,>371.0,,0.003 µM,,,,0.026 µM
"c1cc(CN2CCCNCCNCCCNCC2)ccc1CN1CCCNCCNCCCNCC1 [AMD 3100, reference compound]",> 10 µM,,> 10 µM,,,> 10 µM,,,> 10 µM,,,,
CC1=C(c2nc(-c3ccc(C#N)cc3)cs2)C(c2ccc(Oc3ccccc3)cc2)NC(=O)N1 (stereo not shown) [Example 59],≥ 100 µM,A (A = TI (TC50/IC50) ≧ 100.0),< 1 µM,,,≥ 100 µM,A (A = TI (TC50/IC50) ≧100.0),,< 1 µM,,,,
CC1=C(c2nc(-c3ccc(C#N)cc3)cs2)C(c2ccc(OCc3ccccc3)c(Cl)c2)NC(=O)N1 (stereo not shown) [Example 81],≥ 100 µM,B (B < 100.0-50.0),1 to 5 µM,,,≥ 100 µM,A (A = TI (TC50/IC50) ≧100.0),,< 1 µM,,,,
CC1=C(c2nc(-c3ccc(C#N)cc3)cs2)C(c2ccnc3ccccc23)NC(=O)N1 (stereo not shown) [Example 15],≥ 100 µM,B (B < 100.0-50.0),1 to 5 µM,,,≥ 100 µM,B (B < 100.0-50.0),,1 to 5 µM,,,,
CC1=C(c2nc(-c3ccc(F)cc3)cs2)C(c2cccc(O)c2)NC(=O)N1 (stereo not shown) [Example 44],50 to 100 µM,C (C < 50.0 to 10.0),1 to 5 µM,,,50 to 100 µM,D (D < 10.0),,5 to 100 µM,,,,
COc1ccc(-c2csc(C3=C(C)NC(=O)NC3c3cc(Br)cs3)n2)cc1 (stereo not shown) [Example 40],≥ 100 µM,D (D < 10.0),> 100 µM,,,≥ 100 µM,D (D < 10.0),,5 to 100 µM,,,,
CC1=C(c2nc(-c3ccc(C#N)cc3)cs2)C(c2cccnc2F)NC(=O)N1 (stereo not shown) [Example 29],≥ 100 µM,A (A = TI (TC50/IC50) ≧ 100.0),< 1 µM,,,≥ 100 µM,A (A = TI (TC50/IC50) ≧100.0),,< 1 µM,,,,
CC1=C(c2nc(-c3ccc(C#N)cc3)cs2)C(c2ccncc2F)NC(=O)N1 (stereo not shown) [Example 30],≥ 100 µM,D (D < 10.0),> 100 µM,,,≥ 100 µM,D (D < 10.0),,> 100 µM,,,,
